Consider four compounds from ChEMBL document CHEMBL1135457 (J Med Chem, 2002).

The target in one assay is T1, Glucocorticoid receptor (Homo sapiens, UniProt P04150).
T1 sequence (P04150 whole entry): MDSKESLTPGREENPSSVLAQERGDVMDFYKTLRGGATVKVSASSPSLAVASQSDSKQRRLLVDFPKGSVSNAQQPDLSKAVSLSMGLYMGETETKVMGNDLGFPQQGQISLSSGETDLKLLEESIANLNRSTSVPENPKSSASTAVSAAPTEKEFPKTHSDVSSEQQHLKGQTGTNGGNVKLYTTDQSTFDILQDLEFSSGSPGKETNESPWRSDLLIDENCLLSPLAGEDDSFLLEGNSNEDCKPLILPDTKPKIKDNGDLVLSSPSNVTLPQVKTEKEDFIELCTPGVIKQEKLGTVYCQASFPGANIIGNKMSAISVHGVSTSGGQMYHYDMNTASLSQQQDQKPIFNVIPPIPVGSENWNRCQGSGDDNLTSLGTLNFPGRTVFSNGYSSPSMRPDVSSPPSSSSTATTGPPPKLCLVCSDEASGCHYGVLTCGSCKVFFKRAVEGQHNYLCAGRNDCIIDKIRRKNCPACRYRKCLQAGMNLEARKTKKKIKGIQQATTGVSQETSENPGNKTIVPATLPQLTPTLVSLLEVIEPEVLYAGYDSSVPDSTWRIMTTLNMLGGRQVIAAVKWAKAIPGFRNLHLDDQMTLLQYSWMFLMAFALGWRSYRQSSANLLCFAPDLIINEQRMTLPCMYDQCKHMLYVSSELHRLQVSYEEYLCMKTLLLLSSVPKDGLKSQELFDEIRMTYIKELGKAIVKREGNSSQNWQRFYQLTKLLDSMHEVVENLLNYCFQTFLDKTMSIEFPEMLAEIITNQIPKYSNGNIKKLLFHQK
Put plainly: Displacement of 10 nM [3H]dexamethasone from human Glucocorticoid receptor.

In assay [1] the target is T2, Progesterone receptor (Homo sapiens) (UniProt P06401).
T2 sequence (whole entry): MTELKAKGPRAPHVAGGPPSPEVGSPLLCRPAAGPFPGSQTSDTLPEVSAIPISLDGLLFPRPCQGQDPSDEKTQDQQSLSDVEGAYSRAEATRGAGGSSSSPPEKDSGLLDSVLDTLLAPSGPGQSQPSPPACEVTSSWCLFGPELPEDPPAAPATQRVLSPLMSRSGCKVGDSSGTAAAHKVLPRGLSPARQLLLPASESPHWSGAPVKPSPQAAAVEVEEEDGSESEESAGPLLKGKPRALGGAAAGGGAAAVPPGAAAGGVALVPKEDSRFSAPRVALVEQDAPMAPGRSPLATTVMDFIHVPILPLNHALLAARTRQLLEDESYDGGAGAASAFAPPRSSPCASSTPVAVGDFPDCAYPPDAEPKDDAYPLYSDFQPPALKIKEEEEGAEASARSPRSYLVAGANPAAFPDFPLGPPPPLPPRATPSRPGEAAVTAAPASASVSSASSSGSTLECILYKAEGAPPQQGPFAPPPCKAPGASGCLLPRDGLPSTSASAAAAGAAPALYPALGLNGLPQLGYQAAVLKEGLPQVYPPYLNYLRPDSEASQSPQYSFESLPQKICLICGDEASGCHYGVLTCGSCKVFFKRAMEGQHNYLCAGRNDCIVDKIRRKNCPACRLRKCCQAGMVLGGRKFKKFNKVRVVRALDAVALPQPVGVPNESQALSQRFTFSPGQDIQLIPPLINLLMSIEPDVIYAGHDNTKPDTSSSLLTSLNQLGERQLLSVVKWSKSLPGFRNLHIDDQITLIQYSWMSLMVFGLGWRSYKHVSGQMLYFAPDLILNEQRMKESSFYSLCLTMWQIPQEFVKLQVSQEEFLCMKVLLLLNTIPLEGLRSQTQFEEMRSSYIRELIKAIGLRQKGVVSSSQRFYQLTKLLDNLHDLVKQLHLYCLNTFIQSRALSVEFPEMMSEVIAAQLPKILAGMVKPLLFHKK
In words: Antagonist activity against human Progesterone receptor.

The target in assay [2] is T3, Glucocorticoid receptor (Homo sapiens) (UniProt P04150).
T3 sequence (whole entry): T1 sequence (P04150 whole entry)
Description: (§1) Antagonist activity as displacement of 10 nM [3H]dexamethasone from human Glucocorticoid receptor

For assay [3], the target named is T4, Mineralocorticoid receptor (Homo sapiens) (UniProt P08235).
T4 sequence (whole entry): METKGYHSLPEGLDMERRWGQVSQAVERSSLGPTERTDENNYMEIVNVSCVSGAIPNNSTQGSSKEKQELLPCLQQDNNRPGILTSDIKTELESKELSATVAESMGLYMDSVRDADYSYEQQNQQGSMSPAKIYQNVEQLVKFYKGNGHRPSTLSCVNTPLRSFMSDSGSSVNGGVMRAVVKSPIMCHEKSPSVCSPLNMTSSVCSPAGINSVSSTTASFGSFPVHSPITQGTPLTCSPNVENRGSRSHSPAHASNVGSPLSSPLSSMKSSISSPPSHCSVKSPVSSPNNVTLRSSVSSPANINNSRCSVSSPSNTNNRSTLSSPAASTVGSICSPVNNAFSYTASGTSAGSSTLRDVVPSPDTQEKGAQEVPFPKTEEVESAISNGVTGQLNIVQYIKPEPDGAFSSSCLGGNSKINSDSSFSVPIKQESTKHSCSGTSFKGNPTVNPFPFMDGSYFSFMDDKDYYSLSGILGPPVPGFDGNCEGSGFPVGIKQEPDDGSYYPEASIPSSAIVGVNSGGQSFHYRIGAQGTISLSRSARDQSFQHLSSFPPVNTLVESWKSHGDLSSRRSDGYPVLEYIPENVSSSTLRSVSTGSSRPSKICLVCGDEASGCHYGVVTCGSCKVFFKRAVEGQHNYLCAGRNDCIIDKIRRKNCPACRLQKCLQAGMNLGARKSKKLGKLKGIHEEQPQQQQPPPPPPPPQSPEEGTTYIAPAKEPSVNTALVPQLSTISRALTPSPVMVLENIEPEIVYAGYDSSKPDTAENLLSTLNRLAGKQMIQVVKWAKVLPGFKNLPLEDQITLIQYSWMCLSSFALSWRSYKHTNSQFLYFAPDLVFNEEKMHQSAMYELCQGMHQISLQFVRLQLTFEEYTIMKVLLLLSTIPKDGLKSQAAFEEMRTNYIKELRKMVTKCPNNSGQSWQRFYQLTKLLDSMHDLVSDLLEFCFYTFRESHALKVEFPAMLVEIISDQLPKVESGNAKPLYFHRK
Put plainly: Antagonist activity against human mineralocorticoid receptor as displacement of radioligand. Type of assay: functional.

Assay [4] has as its target T2, Progesterone receptor (Homo sapiens).
Description: (§2) Antagonist activity against human Progesterone receptor by displacement of radioligand
Assay [5] addresses T4, Mineralocorticoid receptor (Homo sapiens).
The target of assay [6] is T3, Glucocorticoid receptor (Homo sapiens). This is another data set of the same source.
Description: as §1
The target of assay [7] is T2, Progesterone receptor (Homo sapiens). This is another data set of the same source.
Description: as §2
A further assay deals with Estrogen receptor beta (Homo sapiens, UniProt Q92731). Put plainly: Displacement of radioligand from human ER beta.
The target in assay [8] is T4, Mineralocorticoid receptor (Homo sapiens). The note with it: 1 uM.
Description: Antagonist activity against human mineralocorticoid receptor as displacement of radioligand, percent inhibition at 1 uM

Bounds are passed on as bounds.

Estrogen receptor beta, sequence (Q92731 whole entry): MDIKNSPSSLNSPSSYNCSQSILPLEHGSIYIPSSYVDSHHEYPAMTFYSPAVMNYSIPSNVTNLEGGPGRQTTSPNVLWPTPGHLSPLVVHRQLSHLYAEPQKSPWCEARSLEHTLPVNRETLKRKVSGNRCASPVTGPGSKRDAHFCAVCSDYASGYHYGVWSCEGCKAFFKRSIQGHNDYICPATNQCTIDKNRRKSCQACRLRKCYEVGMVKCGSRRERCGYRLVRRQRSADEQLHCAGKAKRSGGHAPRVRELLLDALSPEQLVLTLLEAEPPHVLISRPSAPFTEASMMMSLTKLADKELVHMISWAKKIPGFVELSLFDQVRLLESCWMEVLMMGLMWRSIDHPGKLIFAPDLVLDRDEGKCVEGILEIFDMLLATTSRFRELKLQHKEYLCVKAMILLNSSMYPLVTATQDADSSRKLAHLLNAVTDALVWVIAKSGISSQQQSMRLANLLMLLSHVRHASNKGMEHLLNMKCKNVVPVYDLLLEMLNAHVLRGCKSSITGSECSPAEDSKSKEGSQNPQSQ

Take `CC#C[C@@]1(O)CC[C@@]2(Cc3ccccc3)c3ccc(O)cc3CC[C@@H]2C1`: at Glucocorticoid receptor, the Ki (commonly a measure of affinity in units of concentration, obtained from inhibition or displacement) is 0.17 nM. The results for the Kif in assay [1], in [2] and in assay [3] were more than 1000 nM, 10 nM and more than 1000 nM, respectively.
With `O=C1CC[C@@]2(Cc3ccccc3)c3ccc(O)cc3CC[C@@H]2C1`, the Kif in assay [4] was more than 1000 nM. The compound also returned a Ki on Glucocorticoid receptor of 5.96 nM.
As to `Oc1ccc2c(c1)CC[C@@H]1C[C@@](O)(C#CCl)CC[C@@]21Cc1ccccc1`, the Kif in assay [5] is more than 1000 nM; in assay [6], 4.1 nM. At Glucocorticoid receptor, this compound had a Ki of 0.1 nM.
For `CC#C[C@]1(O)CCC2C3CCC4=CC(=O)CC[C@]4(Cc4ccc(C)cc4)C3=CC[C@@]21C` (stereo not given in full), the values for the Kif in assay [5], in assay [7] and in assay [6] were more than 1000 nM, more than 1000 nM and 12 nM, respectively. Also, the inhibitory constant (Ki) at Glucocorticoid receptor is 0.1 nM; at Estrogen receptor beta it was more than 10000 nM. Also, the inhibition (as a rule, the share of the control response that was lost under treatment) in assay [8] was 0%.
